Like-named read-outs stand apart in the source and are kept apart here.
Assays:
[1] = test system: apomorphine-induced vomiting; test: block of apomorphine-induced vomiting in dogs (antiemetic activity); assay type: in vivo, beagle dogs; details: Canis lupus familiaris, sc, read-out: ED50 (dose which protects 50% of the animals from emesis)
Experimental: The method used is described previously by P. A. J. Janssen and C. J. E. Niemegeers in: Arzneim. -Forsch. (Drug Res), 9, 765-767 (1959).
The compounds listed below were administered subcutaneously to beagle dogs at different doses and the animals were challenged 1 hour thereafter with a standard dose of 0.31 mg/kg (subcutaneous) of apomorphine.
The tables below give the ED50 values of a number of the compounds under consideration. As used herein, the ED50 value represents the dose which protects 50% of the animals from emesis.

[2] = test system: apomorphine-induced phenomena: agitation and stereotypic chewing; test: The apomorphine test in rats (anti-apomorphine activity); assay type: in vivo, male Wistar rats; details: Rattus norvegicus, sc, read-out: LED (lowest effective dose), anti-apomorphine activity in rats
Experimental: The compounds of formula (I) are potent psychotropic agents and as such they can be used in the treatment of metal disorders such as, for example, personality and psycho-affective disorders and schizophrenia. The psychotropic activity of the subject compounds (I) is strongly evidenced by the experimental data obtained in the apomorphine test in rats, a test which is indicative for central nervous system depressant activity. The test was carried out following the procedure described hereafter and the experimental data which were obtained are summarized in table V wherein the compound numbers refer to the corresponding structures in the Tables I to IV.
The apomorphine test in rats
The experimental animals used in this test were adult male Wistar rats (weight 240 ± 10 g.). After an overnight fast, the animals were treated subcutaneously (1ml/100 g) with an aqueous solution of the compound under investigation and put into isolated observation cages.

[3] = beagle dogs, challenged 1 hour thereafter with 0.31 mg/kg s.c. apomorphine
[4] = 30 min before 1.25 mg/kg i.v. apomorphine hydrochloride, observed over 1 hour, Fisher exact probability test

SMILES	ED50 ([1]; 1 h) [mg/kg]	ED50 [1, 3] [mg/kg]	minimal effective dose [2] [mg/kg]	minimal effective dose [2, 4] [mg/kg]
O=C(NCCN1CCC2(CC1)C(=O)NCN2c1ccccc1)c1ccccc1	0.1	–	–	–
COc1ccc(C(=O)NCCN2CCC3(CC2)C(=O)NCN3c2ccccc2)cc1	0.5	–	–	–
O=C(NCCN1CCC2(CC1)C(=O)NCN2c1ccc(F)cc1)c1ccc(F)cc1[N+](=O)[O-]	0.03	–	–	–
O=C(NCCN1CCC2(CC1)C(=O)NCN2c1ccc(F)cc1)c1ccccc1[N+](=O)[O-]	0.12	–	–	–
O=C(NCCN1CCC2(CC1)C(=O)NCN2c1ccccc1)c1cccs1	0.45	–	–	–
O=C(NCCN1CCC2(CC1)C(=O)NCN2c1ccccc1)c1cccc(Cl)c1	0.63	–	–	–
O=C(NCCN1CCC2(CC1)C(=O)NCN2c1ccccc1)c1ccc(Cl)cc1	0.8	–	–	–
O=C(NCCN1CCC2(CC1)C(=O)NCN2c1ccccc1)c1ccc(F)cc1[N+](=O)[O-]	0.25	–	–	–
O=C(NCCN1CCC(n2c(=O)[nH]c3ccccc32)CC1)c1ccccc1	–	0.2	–	–
O=C(NCCN1CCC(n2c(=O)[nH]c3ccccc32)CC1)c1ccc(F)cc1	–	0.12	–	–
Cc1ccccc1C(=O)NCCN1CCC(n2c(=O)[nH]c3ccccc32)CC1	–	0.25	–	–
O=C(NCCN1CCC(n2c(=O)[nH]c3ccccc32)CC1)c1ccc(F)cc1[N+](=O)[O-]	–	0.5	–	–
Nc1ccccc1C(=O)NCCN1CCC(n2c(=O)[nH]c3cc(Cl)ccc32)CC1	–	0.45	–	–
O=C(NCCN1CCC(n2c(=O)[nH]c3cc(Cl)ccc32)CC1)c1ccc(F)cc1[N+](=O)[O-]	–	0.25	–	–
N#CCCn1c(=O)n(C2CCN(CCNC(=O)c3ccc(F)cc3)CC2)c2ccccc21	–	0.5	–	–
O=C(NCCN1CC=C(n2c(=O)[nH]c3ccccc32)CC1)c1ccc(F)cc1	–	0.25	–	–
O=C(NCCN1CCC2(CC1)C(=O)NCN2c1ccccc1)c1ccc(F)cc1 [Compound 2]	0.06	–	5	–
O=C(NCCN1CCC2(CC1)C(=O)NCN2c1ccccc1)c1ccccc1Cl [Compound 3]	0.06	–	0.31	–
O=C(NCCN1CCC2(CC1)C(=O)NCN2c1ccccc1)c1ccccc1Br [Compound 4]	0.25	–	2.5	–
Cc1ccccc1C(=O)NCCN1CCC2(CC1)C(=O)NCN2c1ccccc1 [Compound 6]	0.1	–	2.5	–

SMILES	ED50 ([1]; 1 h) [mg/kg]	ED50 [1, 3] [mg/kg]	minimal effective dose [2] [mg/kg]	minimal effective dose [2, 4] [mg/kg]
Cl.Nc1cc(F)ccc1C(=O)NCCN1CCC2(CC1)C(=O)NCN2c1ccccc1.O [Compound 7, 2-amino-4-fluoro-N-[2-(4-oxo-1-phenyl-1,3,8-triazaspiro[4,5]dec-8-yl)ethyl]benzamide hydrochloride hydrate]	0.004	–	2.5	–
O=C(NCCN1CCC2(CC1)C(=O)NCN2c1ccc(F)cc1)c1ccc(F)cc1 [Compound 8]	0.015	–	10	–
O=C(NCCN1CCC2(CC1)C(=O)NCN2c1ccc(F)cc1)c1ccc(F)cc1Cl [Compound 9]	0.002	–	0.63	–
O=C(NCCN1CCC2(CC1)C(=O)NCN2c1ccc(F)cc1)c1ccccc1O [Compound 11]	0.2	–	10	–
O=C(NCCN1CCC2(CC1)C(=O)NCN2c1ccc(F)cc1)c1ccccc1Cl [Compound 14]	0.004	–	0.63	–
O=C(NCCN1CCC2(CC1)C(=O)NCN2c1ccccc1)c1ccccc1F [Compound 16]	0.25	–	1.25	–
Cl.Nc1cc(F)ccc1C(=O)NCCN1CCC2(CC1)C(=O)NCN2c1ccc(F)cc1.O [Compound 20, 2-amino-4-fluoro-N-{2-[1-(4-fluorophenyl)-4-oxo-1,3,8-triazaspiro[4,5]dec-8-yl]ethyl}benzamide hydrochloride hydrate]	0.002	–	5	–
O=C(NCCN1CCC2(CC1)C(=O)NCN2c1ccccc1)c1ccc(F)cc1Cl [Compound 21]	0.015	–	2.5	–
Nc1ccccc1C(=O)NCCN1CCC2(CC1)C(=O)NCN2c1ccc(F)cc1 [Compound 23]	0.008	–	2.5	–
Cn1cccc1C(=O)NCCN1CCC2(CC1)C(=O)NCN2c1ccc(F)cc1 [Compound 24]	0.25	–	10	–
CC(=O)Nc1cc(F)ccc1C(=O)NCCN1CCC2(CC1)C(=O)NCN2c1ccc(F)cc1 [Compound 25]	0.07	–	5	–
O=C(NCCN1CCC(n2c(=O)[nH]c3ccccc32)CC1)c1ccccc1F [Compound 27]	–	0.5	–	5
O=C(NCCN1CCC(n2c(=O)[nH]c3cc(Cl)ccc32)CC1)c1ccc(F)cc1 [Compound 31]	0.08	–	5	–
O=C(NCCN1CCC(n2c(=O)[nH]c3cc(Cl)ccc32)CC1)c1ccc(F)cc1Cl [Compound 32]	–	0.03	–	1.25
Nc1cc(F)ccc1C(=O)NCCN1CCC(n2c(=O)[nH]c3ccccc32)CC1 [Compound 33]	–	0.03	–	5
O=C(NCCN1CCC(n2c(=O)[nH]c3ccccc32)CC1)c1ccccc1Cl [Compound 34]	–	1.5	–	5
Nc1ccccc1C(=O)NCCN1CCC(n2c(=O)[nH]c3ccccc32)CC1 [Compound 36, 2-amino-N-{2-[4-(2,3-dihydro-2-oxo-1H-benzimidazol-1-yl)-1-piperidinyl]ethyl}benzamide hemihydrate]	–	0.1	–	–
CC(=O)Nc1cc(F)ccc1C(=O)NCCN1CCC(n2c(=O)[nH]c3ccccc32)CC1 [Compound 37]	–	0.04	–	10
CC(=O)Nc1cc(F)ccc1C(=O)NCCN1CCC(n2c(=O)[nH]c3cc(Cl)ccc32)CC1 [Compound 38]	–	0.06	–	10
Nc1cc(F)ccc1C(=O)NCCN1CCC(O)(c2ccc(Cl)cc2)CC1 [Compound 40]	0.7	–	5	–

Reference: patent US4031226A, “N-[(1-piperidinyl)alkyl]arylcarboxamide derivatives” (Janssen Pharmaceutica N.V., priority 1976, dated 1977)
